Reference: US8486948B2, “Piperazinodihydrothienopyrimidine derivatives” (Boehringer Ingelheim International GmbH, priority 2007, dated 2013)
Structures can show the parent of a compound that is named as a salt.

target: PDE4B (Homo sapiens, UniProt Q07343); assay: Scintillation Proximity (SPA) assay, inhibition of PDE4B at 1 μM; format: biochemical; details: Table A; test substance 1 μM; one hour incubation with [H3]-cAMP at 30° C.
Procedure: The inhibitions (in %) at 1 μM of the individual Example substances are included in the following Tables of Examples and were determined as follows:
The Scintilation Proximity (SPA) Assays (GE Healthcare, No. TRKQ7090) make use of the different affinities of cyclic 3″-5″-adenosine monophosphate (cAMP, low affinity) and linear 5′-adenosine monophosphate (AMP, high affinity) for yttrium silicate scintillator beads. The cAMP specific phosphodiesterase (PDE) PDE4B cleaves the 3′-phosphoester bond of the tritium-labelled [H3]-cAMP to form the [H3]-5′-AMP. Because of its higher affinity for the scintillator beads this [H3]-AMP accumulates on the beads and causes scintillation events (flashes of light) which are measured in a Wallac Microbeta Scintillation Counter.
The test starts with one hour's incubation of [H3]-cAMP with the PDE4B enzyme in assay buffer at 30° C., once with the Example substance that is to be tested (in a concentration of 1 μM) and once without the Example substance that is to be tested. After this incubation the reaction is stopped by the addition of the beads. The beads are given an opportunity to settle over the next 45 minutes, then they are measured in the Scintillation Counter. If the substance is capable of inhibiting the enzymatic activity of the PDE4B, less [H3]-AMP is formed during the incubation phase and fewer scintillation events can be measured.

PDE4B, sequence (Q07343 whole entry, species assumed): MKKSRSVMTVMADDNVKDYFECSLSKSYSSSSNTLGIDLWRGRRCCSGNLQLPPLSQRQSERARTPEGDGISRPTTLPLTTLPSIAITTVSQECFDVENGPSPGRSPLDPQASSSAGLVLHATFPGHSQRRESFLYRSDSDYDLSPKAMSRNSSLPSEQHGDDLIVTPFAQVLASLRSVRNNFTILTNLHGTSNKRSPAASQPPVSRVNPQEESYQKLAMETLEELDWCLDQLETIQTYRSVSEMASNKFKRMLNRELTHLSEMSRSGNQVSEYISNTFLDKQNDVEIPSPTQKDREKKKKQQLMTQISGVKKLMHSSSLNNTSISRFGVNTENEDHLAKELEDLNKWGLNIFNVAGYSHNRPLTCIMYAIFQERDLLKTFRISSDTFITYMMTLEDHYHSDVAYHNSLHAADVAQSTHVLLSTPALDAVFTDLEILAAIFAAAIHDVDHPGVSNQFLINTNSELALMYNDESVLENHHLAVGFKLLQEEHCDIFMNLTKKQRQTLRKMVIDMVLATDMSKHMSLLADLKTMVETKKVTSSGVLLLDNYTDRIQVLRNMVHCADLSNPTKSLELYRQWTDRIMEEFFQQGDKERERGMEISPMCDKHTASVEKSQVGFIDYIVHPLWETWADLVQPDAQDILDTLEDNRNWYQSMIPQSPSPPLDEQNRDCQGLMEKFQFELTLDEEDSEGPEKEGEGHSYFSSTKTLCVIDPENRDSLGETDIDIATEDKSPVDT

Q: Which inhibition at 1 µM does the source give for `[O-][S+]1CCc2nc(N3C[C@H]4CC3CN4c3ccc(F)cc3)nc(NC3(CO)CC3)c21` (stereo partly drawn) [Example 24, (1-{2-[5-(4-fluorophenyl)-2,5-diazabicyclo[2,2,1]hept-2-yl]-5-oxo-6,7-dihydro-5H-5λ^4-thieno[3,2-d]pyrimidin-4-ylamino}-cyclopropyl)-methanol] here?
A: 93%

Q: `[O-][S+]1CCc2nc(N3CC4CC3CN4c3cccc(F)c3)nc(NC3(CO)CC3)c21` (stereo not drawn) [Example 23] was tested. Which inhibition at 1 µM did it give?
A: 93%

Q: For `O=C1CN(c2nc3c(c(NC4(CO)CC4)n2)[S+]([O-])CC3)CCN1c1cccc(Br)c1` (stereo not drawn) [Example 13], which inhibition at 1 µM is on record?
A: 19%

Q: For `C[C@H]1CN(c2ccc(Cl)cc2)CCN1c1nc2c(c(NC3(CO)CC3)n1)[S+]([O-])CC2` (stereo partly drawn) [Example 5], which inhibition at 1 µM is on record?
A: 95%

Q: Which inhibition at 1 µM does the source give for `C[C@H]1CN(c2ccc(Cl)cc2)CCN1c1nc2c(c(N[C@H]3CCC(=O)N(C)C3)n1)[S+]([O-])CC2` (stereo partly drawn) [Example 3] here?
A: 96%

Q: For `[O-][S+]1CCc2nc(N3C4CCC3CN(c3ccc(Br)cc3)C4)nc(NC3CCOCC3)c21` (stereo not drawn) [Example 27], which inhibition at 1 µM is on record?
A: 97%

Q: With `[O-][S+]1CCc2nc(N3C[C@H]4CC3CN4c3nc4ccccc4o3)nc(NC3CCOCC3)c21` (stereo partly drawn) [Example 29, [2-(5-benzoxazol-2-yl-2,5-diazabicyclo[2,2,1]hept-2-yl)-5-oxo-6,7-dihydro-5H-5λ^4-thieno[3,2-d]pyrimidin-4-yl]-(tetrahydropyran-4-yl)-amine] as the compound, how does the inhibition at 1 µM read?
A: 97%

Q: Which inhibition at 1 µM does the source give for `[O-][S+]1CCc2nc(N3CC4CC3CN4c3ccc(Br)cc3)nc(NC3(CO)CC3)c21` (stereo not drawn) [Example 22] here?
A: 95%

Q: How did the inhibition at 1 µM turn out when `CN1C[C@@H](Nc2nc(N3CCN(c4ccccc4)C(=O)C3)nc3c2[S+]([O-])CC3)CCC1=O` (stereo partly drawn) [Example 17] was run?
A: 96%

Q: With `[O-][S+]1CCc2nc(N3CC4CC3CN4c3ccc(Cl)cc3)nc(Nc3cccc(F)c3)c21` (stereo not drawn) [Example 7] as the compound, how does the inhibition at 1 µM read?
A: 95%

Q: With `CC(C)[C@H](CO)Nc1nc(N2CCN(c3ccc(Cl)cc3)C[C@H]2C)nc2c1[S+]([O-])CC2` (stereo partly drawn) [Example 1, (R)-2-{2-[(R)-4-(4-chlorophenyl)-2-methylpiperazin-1-yl]-5-oxo-6,7-dihydro-5H-5λ^4-thieno[3,2-d]pyrimidin-4-ylamino}-3-methylbutan-1-ol] as the compound, how does the inhibition at 1 µM read?
A: 84%

Q: For `[O-][S+]1CCc2nc(N3C4CC[C@@H]3CN(c3ccc(Br)cc3)C4)nc(NC3(CO)CC3)c21` (stereo partly drawn) [Example 28, (1-{2-[3-(4-bromophenyl)-3,8-diazabicyclo[3.2.1]oct-8-yl]-5-oxo-6,7-dihydro-5H-5λ^4-thieno[3,2-d]pyrimidin-4-ylamino}-cyclopropyl)-methanol trifluoroacetate], which inhibition at 1 µM is on record?
A: 97%

Q: With `[O-][S+]1CCc2nc(N3CC4CC3CN4c3ccc(Br)cc3)nc(NC3CCOCC3)c21` (stereo not drawn) [Example 20] as the compound, how does the inhibition at 1 µM read?
A: 95%

Q: With `CN1C[C@@H](Nc2nc(N3C[C@H]4CC3CN4c3ccc(Cl)cc3)nc3c2[S+]([O-])CC3)CCC1=O` (stereo partly drawn) [Example 9, (S)-5-{2-[5-(4-chlorophenyl)-2,5-diazabicyclo[2,2,1]hept-2-yl]-5-oxo-6,7-dihydro-5H-5λ^4-thieno[3,2-d]pyrimidin-4-ylamino}-1-methylpiperidin-2-one] as the compound, how does the inhibition at 1 µM read?
A: 96%

Q: With `CC(C)[C@H](CO)Nc1nc(N2CCN(c3ccc(Cl)cc3)C[C@@H]2C)nc2c1[S+]([O-])CC2` (stereo partly drawn) [Example 2] as the compound, how does the inhibition at 1 µM read?
A: 94%

Q: For `O=C1CN(c2nc3c(c(NC4CCOCC4)n2)[S+]([O-])CC3)CCN1c1ccccc1` (stereo not drawn) [Example 18], which inhibition at 1 µM is on record?
A: 93%

Q: With `C[C@H]1CN(c2ccc(Cl)cc2)CCN1c1nc2c(c(Nc3cccc(F)c3)n1)[S+]([O-])CC2` (stereo partly drawn) [Example 10] as the compound, how does the inhibition at 1 µM read?
A: 94%

Q: Which inhibition at 1 µM does the source give for `O=C1CN(c2nc3c(c(NC4(CO)CC4)n2)[S+]([O-])CC3)CCN1c1ccccc1` (stereo not drawn) [Example 16] here?
A: 86%

Q: For `[O-][S+]1CCc2nc(N3CC4CC3CN4c3ccc(Cl)cc3)nc(NC3(CO)CC3)c21` (stereo not drawn) [Example 8], which inhibition at 1 µM is on record?
A: 95%

Q: Which inhibition at 1 µM does the source give for `[O-][S+]1CCc2nc(N3CC4CC3CN4c3cccc(F)c3)nc(NC3CCOCC3)c21` (stereo not drawn) [Example 25] here?
A: 94%

Q: How did the inhibition at 1 µM turn out when `[O-][S+]1CCc2nc(N3C[C@H]4CC3CN4c3ccc(Br)cc3)nc(Nc3cccc(F)c3)c21` (stereo partly drawn) [Example 21, {2-[5-(4-bromophenyl)-2,5-diazabicyclo[2,2,1]hept-2-yl]-5-oxo-6,7-dihydro-5H-5λ^4-thieno[3,2-d]pyrimidin-4-yl}-(3-fluorophenyl)-amine] was run?
A: 95%

Q: With `O=C1CN(c2nc3c(c(NC4CCOCC4)n2)[S+]([O-])CC3)CCN1c1cccc(Br)c1` (stereo not drawn) [Example 14] as the compound, how does the inhibition at 1 µM read?
A: 92%

Q: How did the inhibition at 1 µM turn out when `O=C1CN(c2nc3c(c(NC4CCOCC4)n2)[S+]([O-])CC3)CCN1c1ccc(Br)cc1` (stereo not drawn) [Example 12] was run?
A: 93%

Q: How did the inhibition at 1 µM turn out when `CC(C)[C@H](CO)Nc1nc(N2CCN(c3ccccc3)C(=O)C2)nc2c1[S+]([O-])CC2` (stereo partly drawn) [Example 15] was run?
A: 77%

Q: With `O=C1CN(c2nc3c(c(Nc4cccc(F)c4)n2)[S+]([O-])CC3)CCN1c1ccccc1` (stereo not drawn) [Example 19] as the compound, how does the inhibition at 1 µM read?
A: 95%

same assay, conditions: Table C; test substance 1 μM; one hour incubation with [H3]-cAMP at 30° C.

Q: With `[O-][S+]1CCc2nc(N3CCn4c(Cc5ccc(Cl)c(Cl)c5)nnc4C3)nc(NC3(CO)CC3)c21` (stereo not drawn) [Example 32] as the compound, how does the inhibition at 1 µM read?
A: 91%

Q: `CC(C)[C@H](CO)Nc1nc(N2CCn3c(nnc3-c3ccc(F)cc3)C2)nc2c1[S+]([O-])CC2` (stereo partly drawn) [Example 43] was tested. Which inhibition at 1 µM did it give?
A: 88%

Q: With `CC(C)[C@H](CO)Nc1nc(N2CCn3c(Cc4ccc(Cl)c(Cl)c4)nnc3C2)nc2c1[S+]([O-])CC2` (stereo partly drawn) [Example 44] as the compound, how does the inhibition at 1 µM read?
A: 78%

Q: `CCOC(=O)c1cn2c(n1)CN(c1nc3c(c(Nc4cccc(F)c4)n1)[S+]([O-])CC3)CC2` (stereo not drawn) [Example 38] was tested. Which inhibition at 1 µM did it give?
A: 95%

Q: With `CCOC(=O)c1cn2c(n1)CN(c1nc3c(c(NC4(CO)CC4)n1)[S+]([O-])CC3)CC2` (stereo not drawn) [Example 30] as the compound, how does the inhibition at 1 µM read?
A: 95%

Q: `[O-][S+]1CCc2nc(N3CCn4cnnc4C3)nc(NC3CCOCC3)c21` (stereo not drawn) [Example 37, [2-(5,6-DIHYDRO-8H-[1,2,4]TRIAZOLO[4,3-A]PYRAZIN-7-YL)-5-OXO-6,7-DIHYDRO-5H-5λ^4-THIENO[3,2-D]PYRIMIDIN-4-YL]-(TETRAHYDRO-PYRAN-4-YL)-AMINE TRIFLUOROACETATE] was tested. Which inhibition at 1 µM did it give?
A: 87%

Q: How did the inhibition at 1 µM turn out when `[O-][S+]1CCc2nc(N3CCn4c(Cc5ccc(Cl)c(Cl)c5)nnc4C3)nc(NC3CCOCC3)c21` (stereo not drawn) [Example 36] was run?
A: 93%

Q: Which inhibition at 1 µM does the source give for `[O-][S+]1CCc2nc(N3CCn4c(nnc4-c4ccc(F)cc4)C3)nc(NC3CCOCC3)c21` (stereo not drawn) [Example 35] here?
A: 94%

Q: With `CC(C)[C@H](CO)Nc1nc(N2CCn3cnnc3C2)nc2c1[S+]([O-])CC2` (stereo partly drawn) [Example 45, (R)-2-[2-(5,6-DIHYDRO-8H-[1,2,4]TRIAZOLO[4,3-A]PYRAZIN-7-YL)-5-OXO-6,7-DIHYDRO-5H-5λ^4-THIENO[3,2-D]PYRIMIDIN-4-YLAMINO]-3-METHYL-BUTAN-1-OL TRIFLUOROACETATE] as the compound, how does the inhibition at 1 µM read?
A: 55%

Q: How did the inhibition at 1 µM turn out when `[O-][S+]1CCc2nc(N3CCn4c(nnc4-c4ccc(F)cc4)C3)nc(NC3(CO)CC3)c21` (stereo not drawn) [Example 31] was run?
A: 93%

Q: For `CCOC(=O)c1cn2c(n1)CN(c1nc3c(c(N[C@@H](CO)C(C)C)n1)[S+]([O-])CC3)CC2` (stereo partly drawn) [Example 42], which inhibition at 1 µM is on record?
A: 94%

Q: With `[O-][S+]1CCc2nc(N3CCn4c(Cc5ccc(Cl)c(Cl)c5)nnc4C3)nc(Nc3cccc(F)c3)c21` (stereo not drawn) [Example 40, {2-[3-(3,4-dichlorobenzyl)-5,6-dihydro-8H-[1,2,4]triazolo[4,3-a]pyrazin-7-yl]-5-oxo-6,7-dihydro-5H-5λ^4-thieno[3,2-d]pyrimidin-4-yl}-(3-fluorophenyl)-amine] as the compound, how does the inhibition at 1 µM read?
A: 94%

same assay, conditions: Table D; test substance 1 μM; one hour incubation with [H3]-cAMP at 30° C.

Q: For `Cc1nn(C)c(C)c1CNC(=O)c1cn2c(n1)CN(c1nc3c(c(NC4CCOCC4)n1)[S+]([O-])CC3)CC2` (stereo not drawn) [Example 51], which inhibition at 1 µM is on record?
A: 94%

Q: With `CN(C(=O)c1cn2c(n1)CN(c1nc3c(c(NC4CCOCC4)n1)[S+]([O-])CC3)CC2)C1CCOCC1` (stereo not drawn) [Example 54] as the compound, how does the inhibition at 1 µM read?
A: 94%

Q: With `Cc1cn(C)nc1CN(C)C(=O)c1cn2c(n1)CN(c1nc3c(c(NC4CCOCC4)n1)[S+]([O-])CC3)CC2` (stereo not drawn) [Example 56] as the compound, how does the inhibition at 1 µM read?
A: 94%

Q: For `Cc1nn(C)cc1C(C)NC(=O)c1cn2c(n1)CN(c1nc3c(c(NC4CCOCC4)n1)[S+]([O-])CC3)CC2` (stereo not drawn) [Example 52], which inhibition at 1 µM is on record?
A: 93%

Q: `Cc1nn(C)cc1CNC(=O)c1cn2c(n1)CN(c1nc3c(c(NC4CCOCC4)n1)[S+]([O-])CC3)CC2` (stereo not drawn) [Example 57] was tested. Which inhibition at 1 µM did it give?
A: 94%

Q: Which inhibition at 1 µM does the source give for `O=C(c1cn2c(n1)CN(c1nc3c(c(NC4CCOCC4)n1)[S+]([O-])CC3)CC2)N1CCOCC1` (stereo not drawn) [Example 48, Morpholin-4-yl-{7-[5-oxo-4-(tetrahydropyran-4-ylamino)-6,7-dihydro-5H-5λ^4-thieno[3,2-d]pyrimidin-2-yl]-5,6,7,8-tetrahydroimidazo[1,2-a]pyrazin-2-yl}-methanone] here?
A: 93%

Q: With `CN1C[C@@H](Nc2nc(N3CCn4c(nnc4-c4ccc(F)cc4)C3)nc3c2[S+]([O-])CC3)CCC1=O` (stereo partly drawn) [Example 47] as the compound, how does the inhibition at 1 µM read?
A: 96%

Q: With `CCOC(=O)c1cn2c(n1)CN(c1nc3c(c(N[C@H]4CCC(=O)N(C)C4)n1)[S+]([O-])CC3)CC2` (stereo partly drawn) [Example 46] as the compound, how does the inhibition at 1 µM read?
A: 97%

Q: With `CN1CCC(N(C)C(=O)c2cn3c(n2)CN(c2nc4c(c(NC5CCOCC5)n2)[S+]([O-])CC4)CC3)CC1` (stereo not drawn) [Example 49] as the compound, how does the inhibition at 1 µM read?
A: 93%

Q: For `O=C(c1cn2c(n1)CN(c1nc3c(c(NC4CCOCC4)n1)[S+]([O-])CC3)CC2)N(C1CCOCC1)C1CC1` (stereo not drawn) [Example 55], which inhibition at 1 µM is on record?
A: 93%

Q: Which inhibition at 1 µM does the source give for `CC(C)(NC(=O)c1cn2c(n1)CN(c1nc3c(c(NC4CCOCC4)n1)[S+]([O-])CC3)CC2)c1ccncc1` (stereo not drawn) [Example 53] here?
A: 94%
